From PMC5218480 (PLoS ONE, 2017)

Test system: MV-4-11 cells
Experiment: Gene expression microarray analysis (Affymetrix PrimeView) and GSEA
Type: cell-based, human
Design: RFU PODN (11730768_x_at) / Fold change /veh PODN (11730768_x_at) / RFU LINC00158 (11744669_a_at) / Fold change /veh LINC00158 (11744669_a_at) / RFU DUSP10 (11751237_a_at) / Fold change /veh DUSP10 (11751237_a_at) / RFU ID3 (11757404_x_at) / Fold change /veh ID3 (11757404_x_at) / RFU PLEKHG5 (11737974_s_at) / Fold change /veh PLEKHG5 (11737974_s_at) / RFU LRRC4B (11730491_at) / Fold change /veh LRRC4B (11730491_at) / RFU GIMAP4 (11747438_a_at) / Fold change /veh GIMAP4 (11747438_a_at) / RFU KRT8 (11758183_x_at) / Fold change /veh KRT8 (11758183_x_at) / RFU CNN1 (11734310_a_at) / Fold change /veh CNN1 (11734310_a_at) / RFU VPS37D (11726825_at) / Fold change /veh VPS37D (11726825_at) / RFU C10orf10 (11716522_x_at) / Fold change /veh C10orf10 (11716522_x_at) / RFU KIR2DL2 /// KIR2DL4 /// KIR2DL5A /// KIR2DL5B /// KIR2DS1 /// KIR2DS2 /// KIR2DS3 /// KIR2DS4 /// KIR3DL3 /// KIR3DL3 /// KIR3DS1 (11738374_at) / Fold change /veh KIR2DL2 /// KIR2DL4 /// KIR2DL5A /// KIR2DL5B /// KIR2DS1 /// KIR2DS2 /// KIR2DS3 /// KIR2DS4 /// KIR3DL3 /// KIR3DL3 /// KIR3DS1 (11738374_at) / RFU C1QL1 (11718748_at) / Fold change /veh C1QL1 (11718748_at) / RFU TMPRSS4 (11747572_a_at) / Fold change /veh TMPRSS4 (11747572_a_at) / RFU HAMP (11756126_x_at) / Fold change /veh HAMP (11756126_x_at) / RFU RNFT2 (11725882_a_at) / Fold change /veh RNFT2 (11725882_a_at) / RFU NR4A2 (11747474_a_at) / Fold change /veh NR4A2 (11747474_a_at) / RFU ABCC12 (11746883_a_at) / Fold change /veh ABCC12 (11746883_a_at) / RFU TMEM136 (11760407_x_at) / Fold change /veh TMEM136 (11760407_x_at) / RFU CLDN22 /// WWC2 (11732394_at) / Fold change /veh CLDN22 /// WWC2 (11732394_at) / RFU HLA-DPB1 (11760878_x_at) / Fold change /veh HLA-DPB1 (11760878_x_at) / RFU SPINT1 (11716480_a_at) / Fold change /veh SPINT1 (11716480_a_at) / RFU GAP43 (11754022_s_at) / Fold change /veh GAP43 (11754022_s_at) / RFU A4GNT (11735810_at) / Fold change /veh A4GNT (11735810_at) / RFU PRB3 (11715151_x_at) / Fold change /veh PRB3 (11715151_x_at) / RFU TUBB4B (11761932_at) / Fold change /veh TUBB4B (11761932_at) / RFU CAPN14 (11732068_a_at) / Fold change /veh CAPN14 (11732068_a_at) / RFU TMCC2 (11721928_a_at) / Fold change /veh TMCC2 (11721928_a_at) / RFU IRGQ (11745062_a_at) / Fold change /veh IRGQ (11745062_a_at) / RFU FAM174B (11720279_a_at) / Fold change /veh FAM174B (11720279_a_at) / RFU TMPRSS4 (11748680_a_at) / Fold change /veh TMPRSS4 (11748680_a_at) / RFU FAM212B (11763350_a_at) / Fold change /veh FAM212B (11763350_a_at) / RFU PLEKHG5 (11743358_a_at) / Fold change /veh PLEKHG5 (11743358_a_at) / RFU ZSCAN30 (11745921_a_at) / Fold change /veh ZSCAN30 (11745921_a_at) / RFU CMKLR1 (11741424_a_at) / Fold change /veh CMKLR1 (11741424_a_at) / RFU LOC101060620 /// MAPK8IP1 (11723275_at) / Fold change /veh LOC101060620 /// MAPK8IP1 (11723275_at) / RFU SPTSSB (11747773_x_at) / Fold change /veh SPTSSB (11747773_x_at) / RFU PRSS12 (11739890_at) / Fold change /veh PRSS12 (11739890_at) / RFU BIN1 (11741810_x_at) / Fold change /veh BIN1 (11741810_x_at) / RFU WNT11 (11732464_a_at) / Fold change /veh WNT11 (11732464_a_at) / RFU C10orf10 (11716521_a_at) / Fold change /veh C10orf10 (11716521_a_at) / RFU C5orf56 (11738089_at) / Fold change /veh C5orf56 (11738089_at) / RFU CYB561 (11721691_x_at) / Fold change /veh CYB561 (11721691_x_at) / RFU ANKRD19P (11752326_a_at) / Fold change /veh ANKRD19P (11752326_a_at) / RFU OR2T12 /// OR2T33 /// OR2T8 (11738714_s_at) / Fold change /veh OR2T12 /// OR2T33 /// OR2T8 (11738714_s_at) / RFU VCAN (11748164_a_at) / Fold change /veh VCAN (11748164_a_at) / RFU JSRP1 (11732532_at) / Fold change /veh JSRP1 (11732532_at) / RFU KRTAP10-11 (11738290_x_at) / Fold change /veh KRTAP10-11 (11738290_x_at) / RFU MYO3A (11730013_a_at) / Fold change /veh MYO3A (11730013_a_at) / RFU EBF3 (11725865_a_at) / Fold change /veh EBF3 (11725865_a_at) / RFU CAMK2N1 (11719241_x_at) / Fold change /veh CAMK2N1 (11719241_x_at) / RFU C5orf56 (11738088_a_at) / Fold change /veh C5orf56 (11738088_a_at) / RFU OLFML3 (11715873_a_at) / Fold change /veh OLFML3 (11715873_a_at) / RFU LOC100653217 /// NTM (11731650_a_at) / Fold change /veh LOC100653217 /// NTM (11731650_a_at) / RFU MAPK11 (11762145_a_at) / Fold change /veh MAPK11 (11762145_a_at) / RFU FIZ1 (11724087_x_at) / Fold change /veh FIZ1 (11724087_x_at) / RFU OASL (11726364_x_at) / Fold change /veh OASL (11726364_x_at) / RFU SOX15 (11748057_x_at) / Fold change /veh SOX15 (11748057_x_at) / RFU CD79A (11719716_a_at) / Fold change /veh CD79A (11719716_a_at) / RFU HIST1H1D (11736915_at) / Fold change /veh HIST1H1D (11736915_at) / RFU CASKIN2 (11723855_a_at) / Fold change /veh CASKIN2 (11723855_a_at) / RFU LOC730098 (11760151_x_at) / Fold change /veh LOC730098 (11760151_x_at) / RFU OR4N2 (11742367_at) / Fold change /veh OR4N2 (11742367_at) / RFU PRRT2 (11749266_a_at) / Fold change /veh PRRT2 (11749266_a_at) / RFU SNX32 (11753110_a_at) / Fold change /veh SNX32 (11753110_a_at) / RFU CDHR5 (11726645_a_at) / Fold change /veh CDHR5 (11726645_a_at) / RFU RCAN1 (11760418_a_at) / Fold change /veh RCAN1 (11760418_a_at) / RFU FAM167A (11723789_a_at) / Fold change /veh FAM167A (11723789_a_at) / RFU FAM26E (11764081_at) / Fold change /veh FAM26E (11764081_at) / RFU ISYNA1 (11749810_s_at) / Fold change /veh ISYNA1 (11749810_s_at) / RFU ACY1 (11761880_at) / Fold change /veh ACY1 (11761880_at) / RFU 11764098_at / Fold change /veh 11764098_at / RFU SAMD14 (11745864_x_at) / Fold change /veh SAMD14 (11745864_x_at) / RFU NPB (11741838_a_at) / Fold change /veh NPB (11741838_a_at) / RFU TMPRSS6 (11731388_a_at) / Fold change /veh TMPRSS6 (11731388_a_at) / RFU KRTAP10-2 (11738614_at) / Fold change /veh KRTAP10-2 (11738614_at) / RFU ARHGAP8 /// PRR5-ARHGAP8 (11727945_x_at) / Fold change /veh ARHGAP8 /// PRR5-ARHGAP8 (11727945_x_at) / RFU KRTAP5-7 /// NADSYN1 (11734609_at) / Fold change /veh KRTAP5-7 /// NADSYN1 (11734609_at) / RFU RASL12 (11751679_a_at) / Fold change /veh RASL12 (11751679_a_at) / RFU CDKN2B (11736163_a_at) / Fold change /veh CDKN2B (11736163_a_at) / RFU PRF1 (11729649_at) / Fold change /veh PRF1 (11729649_at) / RFU, ZNF638 /// ZNF638-IT1 / Fold change vs veh, ZNF638 /// ZNF638-IT1 / RFU, PANK3 / Fold change vs veh, PANK3 / RFU, SH3YL1 / Fold change vs veh, SH3YL1 / RFU, ZEB2 / Fold change vs veh, ZEB2 / RFU, NRIP1 / Fold change vs veh, NRIP1 / RFU, PTTG1IP / Fold change vs veh, PTTG1IP / RFU, CAPN2 / Fold change vs veh, CAPN2 / RFU, MED14 / Fold change vs veh, MED14 / RFU, SNORA58 / Fold change vs veh, SNORA58 / RFU, C1orf63 / Fold change vs veh, C1orf63 / RFU, LRRFIP1 / Fold change vs veh, LRRFIP1 / RFU, NDUFAF7 / Fold change vs veh, NDUFAF7 / RFU, SLC12A2 / Fold change vs veh, SLC12A2 / RFU, IBTK / Fold change vs veh, IBTK / RFU, ESF1 / Fold change vs veh, ESF1 / Fold change vs veh, TMEM50B / RFU, TAOK1 / Fold change vs veh, TAOK1 / RFU, ACBD3 / Fold change vs veh, ACBD3 / RFU, TMA16 / Fold change vs veh, TMA16 / RFU, RWDD3 / Fold change vs veh, RWDD3 / RFU, BCAT1 / Fold change vs veh, BCAT1 / RFU, EDEM3 / Fold change vs veh, EDEM3 / RFU, TMEM33 / Fold change vs veh, TMEM33 / RFU, WDR75 / Fold change vs veh, WDR75 / RFU, AHCTF1 / Fold change vs veh, AHCTF1 / RFU, TFRC / Fold change vs veh, TFRC / RFU, ZDHHC17 / Fold change vs veh, ZDHHC17 / RFU, NOM1 / Fold change vs veh, NOM1 / RFU, ARL8B / Fold change vs veh, ARL8B / RFU, ZBTB11 / Fold change vs veh, ZBTB11 / RFU, TAMM41 / Fold change vs veh, TAMM41 / RFU, KIAA1704 /// LOC100996395 / Fold change vs veh, KIAA1704 /// LOC100996395 / RFU, ING1 / Fold change vs veh, ING1 / RFU, TRMT61B / Fold change vs veh, TRMT61B / RFU, FUBP3 / Fold change vs veh, FUBP3 / RFU, TP53 / Fold change vs veh, TP53 / RFU, TNKS2 / Fold change vs veh, TNKS2 / RFU, ZFP14 / Fold change vs veh, ZFP14 / RFU, ACTR2 / Fold change vs veh, ACTR2 / RFU, PPP3R1 / Fold change vs veh, PPP3R1 / RFU, PIK3R1 / Fold change vs veh, PIK3R1 / RFU, HNRNPA1 / Fold change vs veh, HNRNPA1 / RFU, RNF170 / Fold change vs veh, RNF170 / RFU, ZNF28 / Fold change vs veh, ZNF28 / RFU, RNGTT / Fold change vs veh, RNGTT / RFU, OGT / Fold change vs veh, OGT / RFU, BRD1 / Fold change vs veh, BRD1 / RFU, MARS / Fold change vs veh, MARS / RFU, ZNF655 / Fold change vs veh, ZNF655 / RFU, FAHD1 / Fold change vs veh, FAHD1 / RFU, BDP1 / Fold change vs veh, BDP1 / RFU, LRRCC1 / Fold change vs veh, LRRCC1 / RFU, ARID1A / Fold change vs veh, ARID1A / RFU, ZNF146 / Fold change vs veh, ZNF146 / RFU, ZNF330 / Fold change vs veh, ZNF330 / RFU, GPN3 / Fold change vs veh, GPN3 / RFU, C9orf123 / Fold change vs veh, C9orf123 / RFU, N4BP2L2 / Fold change vs veh, N4BP2L2 / RFU, ARFIP1 / Fold change vs veh, ARFIP1 / RFU, FAM179B / Fold change vs veh, FAM179B / RFU, BCL10 / Fold change vs veh, BCL10 / RFU, UHRF1BP1L / Fold change vs veh, UHRF1BP1L / RFU, BET1 / Fold change vs veh, BET1 / RFU, CNOT2 / Fold change vs veh, CNOT2 / RFU, ZNF268 / Fold change vs veh, ZNF268 / Fold change vs veh, ZNF507 / RFU, DGCR2 / Fold change vs veh, DGCR2 / RFU, WDSUB1 / Fold change vs veh, WDSUB1 / Fold change vs veh, HSP90B1 /// MIR3652 / RFU, ADSS / Fold change vs veh, ADSS / RFU, GK / Fold change vs veh, GK / RFU, ZNF148 / Fold change vs veh, ZNF148 / RFU, TAF9 / Fold change vs veh, TAF9 / RFU, SLC1A5 / Fold change vs veh, SLC1A5 / RFU, SLMO2 / Fold change vs veh, SLMO2 / RFU, ABCC4 / Fold change vs veh, ABCC4 / RFU, LOC101060439 /// RAP1B / Fold change vs veh, LOC101060439 /// RAP1B / RFU, RFX7 / Fold change vs veh, RFX7 / RFU, GTPBP10 / Fold change vs veh, GTPBP10 / RFU, CNEP1R1 / Fold change vs veh, CNEP1R1 / RFU, BIVM-ERCC5 /// ERCC5 / Fold change vs veh, BIVM-ERCC5 /// ERCC5 / RFU, ILF3 / Fold change vs veh, ILF3 / RFU 11762660_at / Fold change /veh 11762660_at / RFU VCAN (11757783_s_at) / Fold change /veh VCAN (11757783_s_at) / RFU DDX43 (11728927_at) / Fold change /veh DDX43 (11728927_at) / RFU KRT8 (11758188_x_at) / Fold change /veh KRT8 (11758188_x_at) / RFU NKD1 (11759106_at) / Fold change /veh NKD1 (11759106_at) / RFU SRD5A1 (11742802_a_at) / Fold change /veh SRD5A1 (11742802_a_at) / RFU TPSAB1 /// TPSB2 (11721975_s_at) / Fold change /veh TPSAB1 /// TPSB2 (11721975_s_at) / RFU GSTM3 (11746129_a_at) / Fold change /veh GSTM3 (11746129_a_at) / RFU IL23R (11737362_x_at) / Fold change /veh IL23R (11737362_x_at) / RFU TMEM51 (11727254_a_at) / Fold change /veh TMEM51 (11727254_a_at) / RFU PIWIL2 (11732686_x_at) / Fold change /veh PIWIL2 (11732686_x_at) / RFU ORM1 (11744905_x_at) / Fold change /veh ORM1 (11744905_x_at) / RFU CCDC152 (11743942_at) / Fold change /veh CCDC152 (11743942_at) / RFU ECM1 (11717891_a_at) / Fold change /veh ECM1 (11717891_a_at) / RFU IL23R (11748794_a_at) / Fold change /veh IL23R (11748794_a_at) / RFU TNFAIP8L3 (11732012_x_at) / Fold change /veh TNFAIP8L3 (11732012_x_at) / RFU MBOAT4 (11741988_at) / Fold change /veh MBOAT4 (11741988_at) / RFU 11764193_at / Fold change /veh 11764193_at / RFU TMEM53 (11763286_at) / Fold change /veh TMEM53 (11763286_at) / RFU MAGEB2 (11727129_at) / Fold change /veh MAGEB2 (11727129_at) / RFU TMEM200A (11744735_a_at) / Fold change /veh TMEM200A (11744735_a_at) / RFU CCDC152 (11751479_a_at) / Fold change /veh CCDC152 (11751479_a_at) / RFU FAM211A (11726209_a_at) / Fold change /veh FAM211A (11726209_a_at) / RFU RGS16 (11746705_a_at) / Fold change /veh RGS16 (11746705_a_at) / RFU VCAN (11755009_s_at) / Fold change /veh VCAN (11755009_s_at) / RFU RHOB (11743442_s_at) / Fold change /veh RHOB (11743442_s_at) / RFU RGS16 (11720943_a_at) / Fold change /veh RGS16 (11720943_a_at) / RFU RGS16 (11720944_at) / Fold change /veh RGS16 (11720944_at) / RFU, VPS4B / Fold change vs veh, VPS4B / RFU, CREB1 / Fold change vs veh, CREB1 / RFU, DNAJC13 / Fold change vs veh, DNAJC13 / RFU, GNAQ / Fold change vs veh, GNAQ / RFU, CDK5R1 / Fold change vs veh, CDK5R1 / RFU, ZRANB3 / Fold change vs veh, ZRANB3 / RFU, CUL4A / Fold change vs veh, CUL4A / RFU, CCNY / Fold change vs veh, CCNY / RFU, UFL1 / Fold change vs veh, UFL1 / RFU, COG3 / Fold change vs veh, COG3 / RFU, DIAPH2 / Fold change vs veh, DIAPH2 / RFU, SKA2 / Fold change vs veh, SKA2 / RFU, AFF3 / Fold change vs veh, AFF3 / RFU, LMF1 / Fold change vs veh, LMF1 / RFU, IPO11 / Fold change vs veh, IPO11 / RFU, DFFB / Fold change vs veh, DFFB / RFU, FOXP1 / Fold change vs veh, FOXP1 / RFU, CARD8 / Fold change vs veh, CARD8 / RFU, STRN3 / Fold change vs veh, STRN3 / RFU, ADK / Fold change vs veh, ADK / RFU, RASSF2 / Fold change vs veh, RASSF2 / RFU, WIPF1 / Fold change vs veh, WIPF1 / RFU, LARP1B / Fold change vs veh, LARP1B / RFU, RASA1 / Fold change vs veh, RASA1 / RFU, RB1 / Fold change vs veh, RB1 / RFU, PPFIA1 / Fold change vs veh, PPFIA1 / RFU, MAT2A / Fold change vs veh, MAT2A / RFU, CCT5 / Fold change vs veh, CCT5 / RFU, WDR92 / Fold change vs veh, WDR92 / RFU, CUX1 / Fold change vs veh, CUX1 / RFU, TTC7A / Fold change vs veh, TTC7A / RFU, TMEM135 / Fold change vs veh, TMEM135 / RFU, DEPTOR / Fold change vs veh, DEPTOR / RFU, CPM / Fold change vs veh, CPM / RFU, DNAJB6 / Fold change vs veh, DNAJB6 / RFU, CACNA2D3 / Fold change vs veh, CACNA2D3 / RFU, DTX4 / Fold change vs veh, DTX4 / RFU, TFCP2 / Fold change vs veh, TFCP2 / RFU, GMCL1 /// GMCL1P1 / Fold change vs veh, GMCL1 /// GMCL1P1 / RFU, AEBP2 / Fold change vs veh, AEBP2 / RFU, SNHG1 /// SNORD22 /// SNORD25 /// SNORD26 /// SNORD27 /// SNORD28 /// SNORD29 /// SNORD31 / Fold change vs veh, SNHG1 /// SNORD22 /// SNORD25 /// SNORD26 /// SNORD27 /// SNORD28 /// SNORD29 /// SNORD31 / Fold change (Aza/veh), C12orf56 (ProbeSet 11735607_a_at) / Fold change (ACY-1035/veh), C12orf56 (ProbeSet 11735607_a_at) / Fold change (Aza/veh), FGFR1OP (ProbeSet 11751329_s_at) / Fold change (ACY-1035/veh), FGFR1OP (ProbeSet 11751329_s_at) / Fold change (Aza/veh), VPS36 (ProbeSet 11739960_a_at) / Fold change (ACY-1035/veh), VPS36 (ProbeSet 11739960_a_at) / RFU SYPL1 (11715823_x_at) / Fold change /veh SYPL1 (11715823_x_at) / RFU IGFBP7 (11715501_s_at) / Fold change /veh IGFBP7 (11715501_s_at) / RFU REEP3 (11722064_at) / Fold change /veh REEP3 (11722064_at) / RFU IGLL1 (11728026_x_at) / Fold change /veh IGLL1 (11728026_x_at): dose or concentration left out as unconfirmed
Conditions: MV-4-11 cells, 48 hours

## Nc1ccc(-c2cccs2)cc1NC(=O)c1ccc2c(c1)cc(C1CC1)n2CCN1CCOCC1 [ACY-1035]
  Fold change /veh C1QL1 (11718748_at): 0.88
